# Measurements from publication PMC7346217, “Insight of Polyphenol Oxidase Enzyme Inhibition and Total Polyphenol Recovery from Cocoa Beans” (Antioxidants, 2020).
# Test system: T1, polyphenol oxidase (PPO) from cocoa beans
# T1 construct: native; isoenzyme not identified
# Test: spectrophotometric oxidation ([…] nm), Michaelis-Menten nonlinear regression
# Assay type: biochemical, Theobroma cacao
# Settings: crude extract of non-treated beans; McIlvaine buffer pH 6.5; 35 °C; substrate 5-200 mM
row,SMILES,Km [µM]
1,Oc1cc(O)c2c(c1)O[C@H](c1ccc(O)c(O)c1)[C@@H](O)C2 [(+)-catechin],1450 ± 350
2,Oc1ccccc1O [catechol],610 ± 120
3,Oc1cc(O)c2c(c1)O[C@H](c1ccc(O)c(O)c1)[C@H](O)C2 [(−)-epicatechin],1260 ± 370
